Our source for the IC50 values is patent US11332459B2 (TEIJIN PHARMA LIMITED, priority 2017, dated 2022).

The structures appear in SMILES notation. Counter-ions that a name gives are not always drawn.

In the assay the target is T1, human TRPC6 (Homo sapiens, UniProt Q9Y210).
T1 construct: expressed in transfected cells
T1 sequence (Q9Y210 1-931): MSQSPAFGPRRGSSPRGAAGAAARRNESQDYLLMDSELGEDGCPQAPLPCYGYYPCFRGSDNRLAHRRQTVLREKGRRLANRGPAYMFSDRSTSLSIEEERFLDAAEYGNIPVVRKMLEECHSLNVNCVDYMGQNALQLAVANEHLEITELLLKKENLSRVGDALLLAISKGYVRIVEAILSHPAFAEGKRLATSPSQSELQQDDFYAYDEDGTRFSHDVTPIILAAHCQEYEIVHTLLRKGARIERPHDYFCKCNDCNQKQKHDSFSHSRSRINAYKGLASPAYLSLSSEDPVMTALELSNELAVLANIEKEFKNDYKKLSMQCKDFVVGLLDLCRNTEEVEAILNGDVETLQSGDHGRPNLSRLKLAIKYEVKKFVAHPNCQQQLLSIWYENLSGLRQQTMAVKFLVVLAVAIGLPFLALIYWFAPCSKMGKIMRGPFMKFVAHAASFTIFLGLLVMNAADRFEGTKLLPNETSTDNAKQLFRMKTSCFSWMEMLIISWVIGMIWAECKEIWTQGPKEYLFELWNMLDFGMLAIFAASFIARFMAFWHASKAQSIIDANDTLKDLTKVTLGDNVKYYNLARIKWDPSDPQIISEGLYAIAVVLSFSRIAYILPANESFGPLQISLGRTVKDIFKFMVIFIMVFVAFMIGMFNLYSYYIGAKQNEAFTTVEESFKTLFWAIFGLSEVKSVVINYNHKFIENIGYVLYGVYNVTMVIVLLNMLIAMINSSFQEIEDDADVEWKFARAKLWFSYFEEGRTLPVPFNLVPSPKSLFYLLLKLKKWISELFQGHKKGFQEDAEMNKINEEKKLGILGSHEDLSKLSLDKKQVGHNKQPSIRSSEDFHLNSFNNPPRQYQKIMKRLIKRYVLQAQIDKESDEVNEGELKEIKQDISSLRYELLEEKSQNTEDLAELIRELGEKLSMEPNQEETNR
The assay is described as follows: TRPC6 calcium flux assay (FLIPR, OAG-stimulated calcium influx). It is filed as cell-based. The note with it: HEK293 cells stably transfected with human TRPC6, read-out: hTRPC6 Potency. In a few lines:
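HEK293 cells stably expressing human TRPC6, loaded with calcium dye 90–120 min at RT, then given compound for 25 min before OAG (50 uM final, 0.5% DMSO) in HEPES buffer pH 7.2 with 2 mM CaCl2. Background-subtracted FLIPR peak over 180 s normalized to OAG vs buffer; IC50 from dose plot.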
(Calcium assays in cells follow changes in intracellular calcium, usually with a dye or a luminescent sensor.)
Regarding `N[C@@H]1CN(c2nc3cc(F)c(F)cc3n2Cc2cc(Cl)ccc2OC(F)(F)F)CC[C@H]1F` [Example 338, (3R,4R)-1-(1-(5-chloro-2-2-(trifluoromethoxy)benzyl)-5,6-difluoro-1H-benzimidazol-2-yl)-4-fluoro-3-piperidinamine], the IC50 was over 3750 nM.
To `C[C@@H](c1cc(Cl)ccc1Cl)n1c(N2CC[C@@H](F)[C@H](N)C2)nc2cc(F)c(F)cc21` [Example 329, (3R,4R)-1-(1-((1S)-1-(2,5-dichlorophenyl)ethyl)-5,6-difluoro-1H-benzimidazol-2-yl)-4-fluoro-3-piperidinamine] belongs over 3750 nM.
As for `CN(C)C(=O)Cn1c(N2CC[C@@H](F)[C@H](N)C2)nc2ccc(F)cc21` [Example 566, 2-(2-((3R,4R)-3-amino-4-fluoropiperidin-1-yl)-6-fluoro-1H-benzo[d]imidazol-1-yl)-N,N-dimethylacetamide], the IC50 turned out to be 35.2 nM.
On to `CO[C@H]1CCN(c2nc3ccc(F)cc3n2Cc2ncc(Cl)cn2)C[C@H]1N` [Example 467, (3R,4S)-1-(1-((5-chloropyrimidin-2-yl)methyl)-6-fluoro-1H-benzo[d]imidazol-2-yl)-4-methoxypiperidin-3-amine], for which the IC50 came to 123 nM.
In the case of `CN[C@@H]1CCCN(c2nc3ccccc3n2Cc2ccc(C#N)cn2)C1` [Example 117, 6-((2-((3R)-3-(methylamino)-1-piperidinyl)-1H-benzimidazol-1-yl)methyl)-3-pyridinecarbonitrile], the IC50 was over 3750 nM.
Turning to `N[C@@H]1CN(c2nc3ccc(F)cc3n2CC(=O)N2CCC2)CC[C@H]1F` [Example 503, 2-(2-((3R,4R)-3-amino-4-fluoropiperidin-1-yl)-6-fluoro-1H-benzo[d]imidazol-1-yl)-1-(azetidin-1-yl)ethan-1-one], the IC50 is 25.6 nM.
On to `N[C@H]1CCCN(c2nc3ccccc3n2Cc2ccc(C(=O)O)cn2)C1` [Example 434, (S)-6-((2-(3-aminopiperidin-1-yl)-1H-benzo[d]imidazol-1-yl)methyl)nicotinic acid], for which the IC50 is over 3750 nM.
To `N[C@H]1CCCN(c2nc3ccccc3n2Cc2ccc(Cl)cc2)C1` [Example 316, (S)-1-(1-(4-chlorobenzyl)-1H-benzo[d]imidazol-2-yl)piperidin-3-amine hydrochloride] belongs 2.04 nM.
`CN(C)C(=O)Cn1c(N2CC[C@@H](F)[C@H](N)C2)nc2cc(F)c(F)cc21` [Example 278, 2-(2-((3R,4R)-3-amino-4-fluoro-1-piperidinyl)-5,6-difluoro-1H-benzimidazol-1-yl)-N,N-dimethylacetamide]: the IC50 stood at 737 nM.
For the molecule `N#Cc1ccc(Cn2c(N3CC[C@@H](F)[C@H](N)C3)nc3ncccc32)cc1` [Example 417, 4-((2-((3R,4R)-3-amino-4-fluoropiperidin-1-yl)-1H-imidazo[4,5-b]pyridin-1-yl)methyl)benzonitrile], the IC50 worked out at 12.7 nM.
For the molecule `N[C@@H]1CCCN(c2nc3ccccc3n2Cc2ccc(OC(F)(F)F)cc2)C1` [Example 376, (R)-1-(1-(4-(trifluoromethoxy)benzyl)-1H-benzo[d]imidazol-2-yl)piperidin-3-amine], the IC50 stood at 3050 nM.
Take `CS(=O)(=O)c1ccc(Cn2c(N3CCC[C@@H](N)C3)nc3ccccc32)cc1` [Example 370, (R)-1-(1-(4-(methylsulfonyl)benzyl)-1H-benzo[d]imidazol-2-yl)piperidin-3-amine]: the IC50 was over 50000 nM.
For `N#Cc1ccc(Cn2c(N3CCCC4(CCCN4)C3)nc3ccccc32)nc1` (racemic) [Example 128, 6-((2-((5R)-1,7-diazaspiro[4.5-]decan-7-yl)-1H-benzimidazol-1-yl)methyl)-3-pyridinecarbonitrile, 6-((2-((5S)-1,7-diazaspiro[4.5]decan-7-yl)-1H-benzimidazol-1-yl)methyl)-3-pyridinecarbonitrile], the IC50 stood at 49.4 nM.
To `N#Cc1ccc2nc(N3CC[C@H](F)[C@H](N)C3)n(CC(=O)N3CCC3)c2c1` [Example 287, 2-((3R,4S)-3-amino-4-fluoro-1-piperidinyl)-1-(2-(1-azetidinyl)-2-oxoethyl)-1H-benzimidazole-6-carbonitrile] belongs 10.7 nM.
To `N[C@@H]1CCCN(c2nc3ccccc3n2Cc2ccc(F)cc2)C1` [Example 387, (R)-1-(1-(4-fluorobenzyl)-1H-benzo[d]imidazol-2-yl)piperidin-3-amine] belongs 5360 nM; to `N[C@@H]1CN(c2nc3cc(F)c(F)cc3n2Cc2ccccc2C(F)(F)F)CC[C@H]1F` [Example 352, (3R,4R)-1-(5,6-difluoro-1-(2-(trifluoromethyl)benzyl)-1H-benzimidazol-2-yl)-4-fluoro-3-piperidinamine], 328 nM; to `N#Cc1ccc(Cn2c(N3CC[C@H](F)[C@H](N)C3)nc3ccccc32)cc1` [Example 172, 4-((2-((3R,4S)-3-amino-4-fluoropiperidin-1-yl)-1H-benzo[d]imidazol-1-yl)methyl)benzonitrile], 2.22 nM.
Then `CN(C(=O)Cn1c(N2CC[C@@H](F)[C@H](N)C2)nc2cc(F)c(F)cc21)C(C)(C)C#N` [Example 533, 2-(2-((3R,4R)-3-amino-4-fluoropiperidin-1-yl)-5,6-difluoro-1H-benzo[d]imidazol-1-yl)-N-(2-cyanopropan-2-yl)-N-methylacetamide], with over 3750 nM; and `C[C@H](c1ccc(F)cc1F)n1c(N2CC[C@@H](F)[C@H](N)C2)nc2cc(F)c(F)cc21` [Example 330, (3R,4R)-1-(1-((1R)-1-(2,4-difluorophenyl)ethyl)-5,6-difluoro-1H-benzimidazol-2-yl)-4-fluoro-3-piperidinamine], with 669 nM.
For `N[C@@H]1CCCN(c2nc3ccccc3n2Cc2ccc(Cl)cc2Cl)C1` [Example 395, (R)-1-(1-(2,4-dichlorobenzyl)-1H-benzo[d]imidazol-2-yl)piperidin-3-amine], the IC50 was 1120 nM.
Then `N[C@@H]1CN(c2nc3ccc(F)cc3n2Cc2nnc(C(F)F)s2)CC[C@H]1F` [Example 573, (3R,4R)-1-(1-((5-(difluoromethyl)-1,3,4-thiadiazol-2-yl)methyl)-6-fluoro-1H-benzo[d]imidazol-2-yl)-4-fluoropiperidin-3-amine], with 117 nM.
For the molecule `N[C@H]1CCCN(c2nc3ccccc3n2Cc2ccc(-c3ncon3)cc2)C1` [Example 369, (S)-1-(1-(4-(1,2,4-oxadiazol-3-yl)benzyl)-1H-benzo[d]imidazol-2-yl)piperidin-3-amine], the IC50 worked out at 8.65 nM.
Then `N#Cc1ccc(Cn2c(N3CCC(F)(F)[C@H](N)C3)nc3ccccc32)nc1` [Example 212, (R)-6-((2-(3-amino-4,4-difluoropiperidin-1-yl)-1H-benzo[d]imidazol-1-yl)methyl)nicotinonitrile hydrochloride], with 3.5 nM.
To `N#Cc1cccc(Cn2c(N3CCC[C@@H](N)C3)nc3ccccc32)c1` [Example 400, (R)-3-((2-(3-aminopiperidin-1-yl)-1H-benzo[d]imidazol-1-yl)methyl)benzonitrile] belongs 16500 nM; to `N#Cc1ccc(Cn2c(N3CCC(F)(F)[C@H](N)C3)nc3ccc(Cl)cc32)cc1` [Example 405], 0.708 nM; to `N[C@@H]1CN(c2nc3cc(F)c(F)cc3n2Cc2ccc(F)cn2)CC[C@H]1F` [Example 228, (3R,4R)-1-(5,6-difluoro-1-((5-fluoropyridin-2-yl)methyl)-1H-benzo[d]imidazol-2-yl)-4-fluoropiperidin-3-amine hydrochloride], 0.32 nM.
